# From US4575496A, “Erythromycin salt of the o-carbonyl(1-thiazolidinyl)-benzoic acid and pharmaceutical compositions containing it” (Camillo Corvi S.p.A., priority 1983, dated 1986)
# Values joined by “and” are separate entries in the source; they are usually repeats but may differ in a detail not shown here. Equal values may be shown once. Read-outs that look alike come from different tables or passages of the source.
# How the values were obtained:
# staphylococcus aureus [1] = test system: staphylococcus aureus; parameters: unit not given beside the values; conditions: intramuscular
# Excerpt: In Table 4, the activity data relating to the mucus production in the rabbit is reported, according to the method by Scuri et al., published in Boll. Chim.Farm.119, p.181, 1980.
# Staph. aureus 6538 = experiment: Antimicrobic activity, in vitro (CIM); assay type: cell-based, Staph. aureus 6538 (ATCC); conditions: Staph. aureus 6538, in vitro
# Excerpt: (§1) Chim.Farm.119, p.181, 1980.
# (§2) Antimicrobic activity, in vitro.
# (§3) CIM^(1) values (mcg/ml)
# (§4) ^(1) CIM = Mic = Minimal inhibitory concentration
# (§5) ^(3) The 4digit strains are ATCC's
# Micrococcus luteus 9341 = experiment: Antimicrobic activity, in vitro (CIM); assay type: cell-based, Micrococcus luteus 9341 (ATCC); conditions: Micrococcus luteus 9341, in vitro
# Excerpt: as §1, §2, §3, §4, §5
# Staph. epiderm. clin. [2] = experiment: Antimicrobic activity, in vitro (CIM), second clinical isolate; assay type: cell-based, Staph. epiderm. (isolated clinically)
# Excerpt: as §1, §2, §3, §4
# (§6) ^(2) Clin. = Isolated clinically.
# staphylococcus aureus [3] = test system: staphylococcus aureus; parameters: unit not given beside the values; conditions: oral, 1 treatment
# Strept. faecalis 8043 = experiment: Antimicrobic activity, in vitro (CIM); assay type: cell-based, Strept. faecalis 8043 (ATCC); conditions: Strept. faecalis 8043, in vitro
# Excerpt: as §1, §2, §3, §4, §5
# rat = experiment: Oral acute toxicity in the rat; assay type: in vivo
# Excerpt: as §1
# (§7) Oral acute toxicity in the rat
# Serr. marcescens cl. = experiment: Antimicrobic activity, in vitro (CIM); assay type: cell-based, Serr. marcescens (isolated clinically)
# Excerpt: as §1, §2, §3, §4, §6
# rabbit mucoproduction = experiment: Activity on the rabbit mucoproduction (method of Scuri et al.); assay type: in vivo
# Excerpt: as §1
# Activity on the rabbit mucoproduction.
# Staph. aureus 1414 = experiment: Antimicrobic activity, in vitro (CIM); assay type: cell-based, Staph. aureus 1414 (ATCC); conditions: Staph. aureus 1414, in vitro
# Excerpt: as §1, §2, §3, §4, §5
# Staph. epiderm. clin. [4] = experiment: Antimicrobic activity, in vitro (CIM), first clinical isolate; assay type: cell-based, Staph. epiderm. (isolated clinically)
# Excerpt: as §1, §2, §3, §4, §6
# Escherichia coli 418 = experiment: Antimicrobic activity, in vitro (CIM); assay type: cell-based; conditions: Escherichia coli 418, in vitro
# Excerpt: as §1, §2, §3, §4
# Pseudomonas aeruginosa = experiment: Antimicrobic activity, in vitro (CIM); assay type: cell-based
# Excerpt: as §1, §2, §3, §4
# Candida albicans = experiment: Antimicrobic activity, in vitro (CIM); assay type: cell-based
# Excerpt: as §1, §2, §3, §4
# Proteus vulgaris = experiment: Antimicrobic activity, in vitro (CIM); assay type: cell-based
# Excerpt: as §1, §2, §3, §4
# [5] = Oral acute toxicity in the rat; assay type: in vivo; conditions: in vivo, rat, read-out: DL50 (the source's name)
# Excerpt: as §1, §7
# [6] = Staphylococcus aureus, read-out: CIM (Mic, minimal inhibitory concentration)
# [7] = read-out: CIM (Mic, minimal inhibitory concentration)
smiles,measurement,setting,value
"CC[C@H]1OC(=O)[C@H](C)[C@@H](O[C@H]2C[C@@](C)(OC)[C@@H](O)[C@H](C)O2)[C@H](C)[C@@H](O[C@@H]2O[C@H](C)C[C@H](N(C)C)[C@H]2O)[C@](C)(O)C[C@@H](C)C(=O)[C@H](C)[C@@H](O)[C@]1(C)O.O=C(O)c1ccccc1C(=O)N1CCSC1 [CO/1316, erythromycin salt of o-carbonyl(1-thiazolidinyl)-benzoic acid]",DI50,"staphylococcus aureus [1]; medium infection, 5 treatments",76 and 152
same,DI50,"staphylococcus aureus [1]; serious infection, 1 treatment",210 and 390
same,Solubility in 95% ethanol,95% ethanol,32%
same,Solubility in acetone,acetone,50%
same,Solubility in chloroform,chloroform,50%
same,Solubility in dioxane,dioxane,15%
same,Solubility in ethanol,ethanol,50%
same,Solubility in ethyl ether,ethyl ether,0.1%
same,Solubility in methanol,methanol,57%
same,Solubility in n-hexane,n-hexane,pratically insoluble
same,Solubility in toluene,toluene,0.3%
same,Solubility in water,"water, ambient temperature",3 % W/V
same,"CIM (Mic, minimal inhibitory concentration)",Staph. aureus 6538,10 µg/mL
same,"CIM (Mic, minimal inhibitory concentration)",Micrococcus luteus 9341,0.1 µg/mL
same,"CIM (Mic, minimal inhibitory concentration)",Staph. epiderm. clin. [2],0.1 µg/mL
same,DI50,staphylococcus aureus [3]; medium infection,350 and 510
same,DI50,staphylococcus aureus [3]; serious infection,560 and 720
same,"CIM (Mic, minimal inhibitory concentration)",Strept. faecalis 8043,0.6 µg/mL
same,acute oral toxicity compared with erythromycin base,rat,substantially coincides with that of the erythromycin base
same,DL50,rat; rat,> 5.0 g/kg
same,"CIM (Mic, minimal inhibitory concentration)",Serr. marcescens cl.,100 µg/mL
same,Anim. with increase / Treated anim.,rabbit mucoproduction; 40 mg/kg ev,9/14
same,"Anim. with increase / Treated anim., %",rabbit mucoproduction; 40 mg/kg ev,64/2
same,Mucoproduction: Var. %,rabbit mucoproduction; 40 mg/kg ev,+45%
same,"CIM (Mic, minimal inhibitory concentration)",Staph. aureus 1414,10 µg/mL
same,"CIM (Mic, minimal inhibitory concentration)",Staph. epiderm. clin. [4],10 µg/mL
same,"CIM (Mic, minimal inhibitory concentration)",Escherichia coli 418,50 µg/mL
same,"CIM (Mic, minimal inhibitory concentration)",Pseudomonas aeruginosa; in vitro,+100 mcg/ml
same,"CIM (Mic, minimal inhibitory concentration)",Candida albicans,100 µg/mL
same,"CIM (Mic, minimal inhibitory concentration)",Proteus vulgaris,5 µg/mL
CC[C@H]1OC(=O)[C@H](C)[C@@H](O[C@H]2C[C@@](C)(OC)[C@@H](O)[C@H](C)O2)[C@H](C)[C@@H](O[C@@H]2O[C@H](C)C[C@H](N(C)C)[C@H]2O)[C@](C)(O)C[C@@H](C)C(=O)[C@H](C)[C@@H](O)[C@]1(C)O [Erythromycin],MIC,Staph. aureus 6538; [6],10 µg/mL
same,MIC,Micrococcus luteus 9341; [7],0.1 µg/mL
same,MIC,Staph. epiderm. clin. [2]; [7],0.1 µg/mL
same,MIC,"Strept. faecalis 8043; Enterococcus faecalis, read-out: CIM (Mic, minimal inhibitory concentration)",0.3 µg/mL
same,LD50,[5],> 5000 mg/kg
same,MIC,"Serr. marcescens cl.; Serratia marcescens, read-out: CIM (Mic, minimal inhibitory concentration)",50 µg/mL
same,Anim. with increase / Treated anim.,rabbit mucoproduction; 30 mg/kg ev,0/10
same,Mucoproduction: Var. %,rabbit mucoproduction; 30 mg/kg ev,Inactive
same,MIC,Staph. aureus 1414; [6],10 µg/mL
same,MIC,Staph. epiderm. clin. [4]; [7],10 µg/mL
same,MIC,Escherichia coli 418; [7],25 µg/mL
same,MIC,Pseudomonas aeruginosa; [7],100 µg/mL
same,MIC,Candida albicans; [7],100 µg/mL
same,MIC,Proteus vulgaris; [7],2.5 µg/mL
